From PMC12648313, “Enhancing the Efficacy, Utility, and Throughput of the Transcription Block Survival Peptide Library Screening Platform” (JACS Au, 2025) come the findings set out here.

In general, Kd refers to the concentration at which binding is half-saturated.

The target of one assay is T1, ATF2-CRE DNA interaction (Homo sapiens, UniProt P15336).
T1 construct: human ATF2 bZIP domain spans from Asp352 to Gln410; made in house; host or cells: chemical synthesis (Fmoc solid-phase peptide synthesis), no expression host
T1 sequence (P15336 352-410): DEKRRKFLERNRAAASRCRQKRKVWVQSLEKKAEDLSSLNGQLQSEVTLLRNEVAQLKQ
Description: FP antagonism assay ATF2-CRE. The class given is biochemical. Particulars: up to 12 μM ATF2W. The method, then:
Fluorescence polarization (FP) was next utilized to confirm that ATF2W binding induces the intended antagonism of the ATF2-CRE interaction. […] To assess ATF2W antagonism, 625 nM ATF2, which corresponded to 80% of the maximum DNA binding, was incubated with CRE DNA (10 nM) and varied concentrations of ATF2W (29 nM-12 μM). […] This represents a ∼ 3-fold selectivity for ATF2. […] As the peptide library was designed using established coiled coil interaction rules, it was expected that many sequences would bind the target.
(DMF). Deprotection was performed by addition of 0.75 mL 30% pyrrolidine into the coupling reaction. Peptides were acetylated at the N-terminus by a final reaction with 3x acetic anhydride, 4.5x diisopropylethylamine in DMF for one hour at room temperature. Incubation in a cleavage mixture (95% TFA, 2.5% triisopropylsilane, 2.5% H2O, 10 mL) for 4 h at room temperature cleaved the peptide from the resin and removed side chain protecting groups.
2.5% DODT was added to the cleavage cocktail for ATF2. The resin was removed by filtration and cleaved peptides were precipitated in diethyl ether at -80°C and centrifuged.
This pellet was washed a further four times with diethyl ether before it was dried overnight at room temperature. […]

A further assay deals with T2, ATF2 (Homo sapiens, UniProt P15336).
T2 construct: human ATF2 bZIP domain spans from Asp352 to Gln410; made in house; host or cells: chemical synthesis (Fmoc solid-phase peptide synthesis), no expression host
T2 sequence (P15336 352-410): T1 sequence (P15336 352-410)
Kind of assay: Isothermal titration calorimetry. The class given is binding. The conditions noted are these: 20 °C, pH 7.4, average of three independent experiments ± SD. The source says:
5 Biophysical characterization of the ATF2-ATF2W interaction. (A) CD spectra of ATF2 and ATF2W indicating an increase in helicity upon mixture of the two components, indicative of the formation of a heterodimeric coiled coil. (B) CD thermal denaturation experiment indicates a T m shift upon mixture of ATF2/ATF2W, supporting the formation of a stable heterodimer. The “average” CD trace in A and B represents an averaged value of the two unbound components which would be the trace for no interaction. (C) ITC data for ATF2W (50 μM) titrated into ATF2 (5 μM) at 20 °C. The raw power compensation plot is shown in the upper graph and the integrated data points and single site model fitted line are shown in the lower graph. […] ATF2W is selective for ATF2, with a ∼ 3-fold reduction in antagonism for CREB1/CRE and cJun/TRE despite high structural and sequence homology. […]
removed before peptide concentration determination.
Peptide samples were suspended in 20
Post-melt scans at 20°C confirmed the
Sequential 2 µL injections of ATF2W (50 µM)
Data from a control experiment whereby […]
errors are given as one standard deviation.
Fluorescence polarisation: Fluorescence polarisation was measured in a CLARIOstar

Consider “Ac-LEQQLEELAQENEELEKEAAELQQQIARLKNEVAKLENENKTLDREIKALQREYSHKSD-NH2 [ATF2W]”, for which the “ATF2-CRE antagonism at top concentrations” value on ATF2-CRE DNA interaction is listed as “reducing the FP value to that of free DNA”. The Kd at ATF2 (ATF2W (50 μM) titrated into ATF2 (5 μM), 50 mM potassium phosphate, 150 mM NaCl, 10 mM TCEP, one-site model) is 114 ± 21 nM. At ATF2 (ITC), the “-TΔS” value is 40 ± 4 kJ mol^–1, the “N (stoichiometry)” value is reported as 0.99 ± 0.01 and the ΔH is −79 ± 3 kJ mol^–1.
